What follows are compounds tested against Sigma non-opioid intracellular receptor 1 (Cavia porcellus) (UniProt Q60492) (assay: Displacement of [3H](+)-pentazocine from Sigma opioid receptor type 1 in guinea pig brain membrane).
Chain of Sigma non-opioid intracellular receptor 1 (Cavia porcellus) (Q60492 whole entry, looked up): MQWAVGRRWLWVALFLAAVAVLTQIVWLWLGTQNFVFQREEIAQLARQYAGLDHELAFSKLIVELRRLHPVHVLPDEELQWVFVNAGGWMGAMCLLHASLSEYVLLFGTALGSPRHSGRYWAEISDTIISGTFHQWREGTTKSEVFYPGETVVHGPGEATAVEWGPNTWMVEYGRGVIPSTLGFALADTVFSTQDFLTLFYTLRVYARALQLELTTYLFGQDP

| SMILES | Ki |
| --- | --- |
| CN(CCc1ccc([N+](=O)[O-])cc1)CCN1CCCC1 [Methyl-[2-(4-nitro-phenyl)-ethyl]-(2-pyrrolidin-1-yl-ethyl)-amine] | 4.3 nM |
| CN(CCN1CCCC1)C(=O)Cc1ccc([N+](=O)[O-])cc1 [N-Methyl-2-(4-nitro-phenyl)-N-(2-pyrrolidin-1-yl-ethyl)-acetamide] | 869 nM |
| CN(CCN1CCCC1)C(=O)Cc1ccccc1[N+](=O)[O-] [N-Methyl-2-(2-nitro-phenyl)-N-(2-pyrrolidin-1-yl-ethyl)-acetamide] | 736 nM |
| COc1cccc(CC(=O)N(C)CCN2CCCC2)c1 [2-(3-Methoxy-phenyl)-N-methyl-N-(2-pyrrolidin-1-yl-ethyl)-acetamide] | 3100 nM |
| CN(CCc1cccc(N)c1)CCN1CCCC1 [3-{2-[Methyl-(2-pyrrolidin-1-yl-ethyl)-amino]-ethyl}-phenylamine] | 579 nM |
| CN(CCN1CCCC1)C(=O)Cc1cccc([N+](=O)[O-])c1 [N-Methyl-2-(3-nitro-phenyl)-N-(2-pyrrolidin-1-yl-ethyl)-acetamide] | 1850 nM |
| COc1ccc(CC(=O)N(C)CCN2CCCC2)cc1 [2-(4-Methoxy-phenyl)-N-methyl-N-(2-pyrrolidin-1-yl-ethyl)-acetamide] | 2220 nM |

Second part, the compound after the results:

| Ki | SMILES |
| --- | --- |
| 30.3 nM | COc1ccc(CCN(C)CCN2CCCC2)cc1 [[2-(4-Methoxy-phenyl)-ethyl]-methyl-(2-pyrrolidin-1-yl-ethyl)-amine] |
| 6.4 nM | CN(CCc1cccc([N+](=O)[O-])c1)CCN1CCCC1 [Methyl-[2-(3-nitro-phenyl)-ethyl]-(2-pyrrolidin-1-yl-ethyl)-amine] |
| 15.7 nM | COc1ccccc1CCN(C)CCN1CCCC1 [[2-(2-Methoxy-phenyl)-ethyl]-methyl-(2-pyrrolidin-1-yl-ethyl)-amine] |
| 276 nM | CN(CCc1ccc(N)cc1)CCN1CCCC1 [4-{2-[Methyl-(2-pyrrolidin-1-yl-ethyl)-amino]-ethyl}-phenylamine] |
| 7.7 nM | CN(CCc1ccccc1[N+](=O)[O-])CCN1CCCC1 [Methyl-[2-(2-nitro-phenyl)-ethyl]-(2-pyrrolidin-1-yl-ethyl)-amine] |
| 291 nM | CN(CCc1ccccc1N)CCN1CCCC1 [2-{2-[Methyl-(2-pyrrolidin-1-yl-ethyl)-amino]-ethyl}-phenylamine] |
| 23.8 nM | COc1cccc(CCN(C)CCN2CCCC2)c1 [[2-(3-Methoxy-phenyl)-ethyl]-methyl-(2-pyrrolidin-1-yl-ethyl)-amine] |

— BindingDB's records for doi:10.1021/jm9600813 (National Institute of Diabetes and Digestive and Kidney …, 1996)
